According to ChEMBL document CHEMBL1201862, “PubChem BioAssay data set” (2004):
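In this assay, cells in 96-well plates receive the compound at five concentrations for 48 hours. Endpoints are linearly interpolated between the surrounding concentrations. The concentration for 50% growth inhibition is given as GI50.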 The source made the active and inactive calls. No stated cut-off is given here; in the data, active = GI50 up to about 1.1 µM and inactive = higher.

How the values were obtained:
Test in all cases: NCI-60 cell line screen, 48 h
[1] = test system: A549
[2] = test system: MOLT-4
[3] = test system: HCC 2998
[4] = test system: Hs-578T
[5] = test system: BT-549
[6] = test system: CAKI-1
[7] = test system: K562
[8] = test system: SK-OV-3
[9] = test system: HT-29
[10] = test system: UACC-257
[11] = test system: RXF 393
[12] = test system: NCI-H23
[13] = test system: OVCAR-3
[14] = test system: A498
[15] = test system: SR
[16] = test system: UO-31
[17] = test system: NCI-H226
[18] = test system: MDA-MB-231
[19] = test system: SNB-19
[20] = test system: 786-0
[21] = test system: SF-268
[22] = test system: HCT-15
[23] = test system: RPMI-8226
[24] = test system: SN12C
[25] = test system: TK-10
[26] = test system: NCI/ADR-RES
[27] = test system: MDA-MB-435
[28] = test system: OVCAR-8
[29] = test system: LOX IMVI
[30] = test system: DU-145
[31] = test system: SK-MEL-5
[32] = test system: EKVX
[33] = test system: UACC-62
[34] = test system: HL-60
[35] = test system: OVCAR-5
[36] = test system: NCI-H460
[37] = test system: CCRF-CEM
[38] = test system: SF-539
[39] = test system: ACHN
[40] = test system: HCT-116
[41] = test system: SF-295
[42] = test system: HOP-62
[43] = test system: Malme-3M
[44] = test system: COLO 205
[45] = test system: M14
[46] = test system: SK-MEL-2
[47] = test system: SW-620
[48] = test system: U-251
[49] = test system: IGROV-1
[50] = test system: PC-3
[51] = test system: MDA-N
[52] = test system: HOP-92
[53] = test system: SNB-75
[54] = test system: MCF7
[55] = test system: T47D
[56] = test system: NCI-H522
[57] = test system: SK-MEL-28
[58] = test system: OVCAR-4
[59] = test system: KM12

Compound: CC(C)(C)C1CCC2c3c([nH]c4ccccc34)C3C(=O)N(c4ccccc4Cl)C(=O)C3C2C1 (centres undefined)
- GI50 [1]: 9.2 µM (inactive)
- GI50 [2]: 17.9 µM (inactive)
- GI50 [3]: 3.41 µM (inactive)
- GI50 [4]: 10.4 µM (inactive)
- GI50 [5]: 23.8 µM (inactive)
- GI50 [6]: 9.12 µM (inactive)
- GI50 [7]: 9.79 µM (inactive)
- GI50 [8]: 22.8 µM (inactive)
- GI50 [9]: 5.86 µM (inactive)
- GI50 [10]: 31.6 µM (inactive)
- GI50 [11]: 11.9 µM (inactive)
- GI50 [12]: 14.4 µM (inactive)
- GI50 [13]: 15.6 µM (inactive)
- GI50 [14]: 17.9 µM (inactive)
- GI50 [15]: 13.4 µM (inactive)
- GI50 [16]: 14.5 µM (inactive)
- GI50 [17]: > 10 µM (inactive)
- GI50 [18]: 10.3 µM (inactive)
- GI50 [19]: 35.8 µM (inactive)
- GI50 [20]: 10.3 µM (inactive)
- GI50 [21]: 14.4 µM (inactive)
- GI50 [22]: 12.1 µM
- GI50 [23]: 31.4 µM (inactive)
- GI50 [24]: 10.6 µM (inactive)
- GI50 [25]: 19.4 µM (inactive)
- GI50 [26]: 15.3 µM (inactive)
- GI50 [27]: 30.7 µM (inactive)
- GI50 [28]: 16 µM (inactive)
- GI50 [29]: 10.6 µM (inactive)
- GI50 [30]: 15.1 µM (inactive)
- GI50 [31]: 14.1 µM (inactive)
- GI50 [32]: 6.65 µM (inactive)
- GI50 [33]: 14 µM (inactive)
- GI50 [34]: 12.6 µM (inactive)
- GI50 [35]: > 10 µM (inactive)
- GI50 [36]: 3.48 µM (inactive)
- GI50 [37]: 15.3 µM (inactive)
- GI50 [38]: > 10 µM (inactive)
- GI50 [39]: 14.1 µM (inactive)
- GI50 [40]: 3.18 µM (inactive)
- GI50 [41]: 19.7 µM (inactive)
- GI50 [42]: 14.5 µM (inactive)
- GI50 [43]: 17.3 µM (inactive)
- GI50 [44]: > 10 µM (inactive)
- GI50 [45]: 17.1 µM (inactive)
- GI50 [46]: 17.5 µM (inactive)
- GI50 [47]: 7.94 µM (inactive)
- GI50 [48]: 15.6 µM (inactive)
- GI50 [49]: 25.9 µM (inactive)
- GI50 [50]: 5.31 µM (inactive)
- GI50 [51]: 12.1 µM (inactive)
- GI50 [52]: 0.15 µM (active)

Compound: Cc1ccc2c(c1)SC1=Nc3sc4cc(C)ccc4[n+]3CN12
- GI50 [1]: 2.68 µM (inactive)
- GI50 [53]: 11.4 µM (inactive)
- GI50 [2]: < 0.01 µM (active)
- GI50 [3]: 1.75 µM (inactive)
- GI50 [4]: 6.87 µM (inactive)
- GI50 [54]: 4.44 µM (inactive)
- GI50 [5]: 2.43 µM (inactive)
- GI50 [8]: 31.8 µM (inactive)
- GI50 [9]: 6.82 µM (inactive)
- GI50 [10]: 2.18 µM (inactive)
- GI50 [11]: 78.5 µM (inactive)
- GI50 [12]: 1.98 µM (inactive)
- GI50 [13]: 1.01 µM (active)
- GI50 [14]: 11.1 µM (inactive)
- GI50 [16]: 35.6 µM (inactive)
- GI50 [17]: 15.8 µM (inactive)
- GI50 [18]: 10.8 µM (inactive)
- GI50 [19]: 3.24 µM (inactive)
- GI50 [20]: 32.2 µM (inactive)
- GI50 [21]: 8.26 µM (inactive)
- GI50 [22]: 40.5 µM
- GI50 [23]: 1.81 µM (inactive)
- GI50 [24]: 7.16 µM (inactive)
- GI50 [55]: 1.34 µM (inactive)
- GI50 [56]: 1.05 µM (active)
- GI50 [25]: 14.9 µM (inactive)
- GI50 [26]: 34.4 µM (inactive)
- GI50 [27]: 4.22 µM (inactive)
- GI50 [28]: 3.04 µM (inactive)
- GI50 [29]: 21 µM (inactive)
- GI50 [30]: 24.1 µM (inactive)
- GI50 [31]: 1.07 µM (active)
- GI50 [32]: 0.687 µM (active)
- GI50 [33]: 3.4 µM (inactive)
- GI50 [57]: 13 µM (inactive)
- GI50 [34]: 2.07 µM (inactive)
- GI50 [35]: 18.3 µM (inactive)
- GI50 [36]: 11.7 µM (inactive)
- GI50 [38]: 3.73 µM (inactive)
- GI50 [39]: 30.2 µM (inactive)
- GI50 [40]: 10.5 µM (inactive)
- GI50 [42]: 9.57 µM (inactive)
- GI50 [43]: 0.568 µM (active)
- GI50 [44]: 2.7 µM (inactive)
- GI50 [45]: 3.59 µM (inactive)
- GI50 [46]: 3.51 µM (inactive)
- GI50 [47]: 10.4 µM (inactive)
- GI50 [48]: 2.58 µM (inactive)
- GI50 [58]: 2.51 µM (inactive)
- GI50 [49]: 16.1 µM (inactive)
- GI50 [50]: 15.4 µM (inactive)
- GI50 [52]: 2.97 µM (inactive)

Compound: O=C(/C=C/c1cccc([N+](=O)[O-])c1)N1CCN(CCOC(c2ccccc2)c2ccccc2)CC1
- GI50 [1]: 45.7 µM (inactive)
- GI50 [53]: 54.2 µM (inactive)
- GI50 [2]: 12.4 µM (inactive)
- GI50 [3]: 23.7 µM (inactive)
- GI50 [54]: 27.9 µM (inactive)
- GI50 [5]: 27.4 µM (inactive)
- GI50 [6]: > 100 µM (inactive)
- GI50 [7]: 19.4 µM (inactive)
- GI50 [8]: > 100 µM (inactive)
- GI50 [9]: 19.2 µM (inactive)
- GI50 [10]: 32.4 µM (inactive)
- GI50 [11]: 34.4 µM (inactive)
- GI50 [12]: 43.6 µM (inactive)
- GI50 [13]: 66.1 µM (inactive)
- GI50 [14]: 50.7 µM (inactive)
- GI50 [15]: 16.1 µM (inactive)
- GI50 [16]: 33.1 µM (inactive)
- GI50 [59]: 26.9 µM (inactive)
- GI50 [19]: > 100 µM (inactive)
- GI50 [20]: 38.2 µM (inactive)
- GI50 [22]: 31.1 µM
- GI50 [23]: 12.3 µM (inactive)
- GI50 [24]: 57.5 µM (inactive)
- GI50 [55]: 17.9 µM (inactive)
- GI50 [56]: 24.5 µM (inactive)
- GI50 [25]: 22.7 µM (inactive)
- GI50 [26]: 48.6 µM (inactive)
- GI50 [27]: 33.4 µM (inactive)
- GI50 [28]: 30.6 µM (inactive)
- GI50 [29]: 22.9 µM (inactive)
- GI50 [30]: 47.3 µM (inactive)
- GI50 [31]: 14.9 µM (inactive)
- GI50 [32]: > 100 µM (inactive)
- GI50 [33]: 33.8 µM (inactive)
- GI50 [57]: 25.9 µM (inactive)
- GI50 [35]: > 100 µM (inactive)
- GI50 [36]: 25.9 µM (inactive)
- GI50 [37]: 28.4 µM (inactive)
- GI50 [39]: 34.5 µM (inactive)
- GI50 [40]: 18.6 µM (inactive)
- GI50 [41]: 56.8 µM (inactive)
- GI50 [42]: > 100 µM (inactive)
- GI50 [43]: 31.8 µM (inactive)
- GI50 [44]: 21.7 µM (inactive)
- GI50 [45]: 32.9 µM (inactive)
- GI50 [47]: 38.9 µM (inactive)
- GI50 [58]: 29.9 µM (inactive)
- GI50 [49]: 42.6 µM (inactive)
- GI50 [51]: 37.3 µM (inactive)
- GI50 [52]: 16.6 µM (inactive)
